Earlier results on 1 molecule are cited in patent EP0266549A1, “Cinnamyl amines, process for their preparation and pharmaceutical compositions containing them” (BOEHRINGER MANNHEIM ITALIA S.P.A., priority 1986, dated 1988).

For this series the following is noted: in vitro; Arch. lnt. Pharmacology, 272, 283, 1984; cited from earlier work.

Structures are written as SMILES. Where a name gives a salt, the structure may show the parent alone.

Consider `Fc1ccc(C(c2ccc(F)cc2)N2CCN(C/C=C/c3ccccc3)CC2)cc1` [Flunarizine HCl], for which the “activity as "radical scavenger"” value was “very active”.
